Data as given in PubChem BioAssay (NCI).
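How tested: cells in 96-well plates exposed to compound for 48 hours at five concentrations. The concentration for 50% growth inhibition is given as GI50. TGI: concentration producing complete growth inhibition.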

Columns and labels:
Test in all cases: growth of human tumour cells (NCI), 48 h
[1] = tested on: BT-549 breast
[2] = tested on: COLO 205 colon
[3] = tested on: MOLT-4 leukemia
[4] = tested on: NCI/ADR-RES ovarian
[5] = tested on: OVCAR-3 ovarian
[6] = tested on: RXF 393 renal
[7] = tested on: SNB-19 CNS
[8] = tested on: SW-620 colon
[9] = tested on: T-47D breast
[10] = tested on: TK-10 renal

Compound	GI50 [1] [µM]	TGI [1] [µM]	GI50 [2] [µM]	TGI [2] [µM]	GI50 [3] [µM]	TGI [3] [µM]	GI50 [4] [µM]	TGI [4] [µM]	GI50 [5] [nM]	TGI [5] [µM]	GI50 [6] [µM]	TGI [6] [µM]	GI50 [7] [µM]	TGI [7] [µM]	GI50 [8] [µM]	TGI [8] [µM]	GI50 [9] [nM]	TGI [9] [µM]	GI50 [10] [µM]	TGI [10] [µM]
O=C(CCl)Nc1ccccc1SCc1cc(Cl)cc2c1OCOC2	3.52	11.5	17.3	35.5	2.6	7.51	17.5	84.8	2080	4.24	7.24	20.9	14.1	28.9	3.73	17.1	9820	45.2	16.9	31.4
CC(=O)C(C(=N)C#N)C(=O)Nc1ccccc1 (stereo not given)		> 100		> 100		> 100		> 100		> 100		> 100		> 100		> 100		> 100		> 100
COc1ccc(/C=C/C(=O)/C=C(/C=C/c2ccc(OC)c(OC)c2)OB(F)F)cc1OC	1.13	2.68	0.37	1.57	0.449	6.17	0.529	> 100	324	1.04	0.34	1.31	1.63	5.73	0.373	2.33	805	> 100	1.25	9.48
COc1cccc(-c2nc(-c3ccc(NS(=O)(=O)c4ccccc4)cc3)[nH]c2-c2ccnc(Br)c2)c1	2.72	9.21	2.66	12.4	2.74	> 100	3.44	> 100	3030	17.7	2.18	5.73	4.03	> 100	2.83	> 100	2740	> 100	3.72	> 100
C[C@@H](Oc1cc(-c2cnn(C3CCNCC3)c2)cnc1N)c1c(Cl)ccc(F)c1Cl	5.24	> 10	0.42	1.57	0.701	4.39	7.38	> 10	3260	> 10	1.36	3.11	2.24	> 10	0.435	> 10	1710	7.9	2.76	> 10
COc1cc2c3c(n(CCCO)c(=O)c2cc1OC)-c1cc2c(cc1C3=O)OCO2	2.22	49	26.4	98	0.841	6.7	3.95	> 53.4	21600	> 81.9	27.1	> 94.6	14.5	> 100	4.75	> 100	14200	> 100	34.7	> 100
CS(=O)(=O)c1ccc(Oc2nccc(-c3c(-c4ccc(F)cc4)ncn3C3CCNCC3)n2)cc1	> 25	> 25	> 25	> 25	> 12.9	> 18.9	> 25	> 25	> 25000	> 25	> 25	> 25	> 25	> 25	> 25	> 25	> 25000	> 25	> 25	> 25
C=C(CN1CCc2ccccc2C1)c1ccc(/C=C/C(=O)Nc2ccccc2N)cc1	10.3	> 100	32.2	> 100	3.18	> 100	4.27	> 100	5590	51	12.1	> 100	26.6	> 100	5.07	> 100	10500	> 100	3.88	26.9
OCc1ccc(N(Cc2ccc(F)cc2)C2CCC2)cc1Cl	17.7	32.8	3.5	11.5	15.7	36.7	12.7	27.8	403	2.05	3.57	16.6	13.8	27.5	0.744	16.8	141	0.815	0.0551	0.278
O=C(Oc1cccc(Nc2ncnc3ccccc23)c1)c1ccccc1Cl	24.8	62.3	24	> 100	> 100	> 100	14.5	40.7	16700	56.9	24.8	70.6	52.7	> 100	21.8	49.2	29200	> 100	8.72	37.8
Cn1cc(-c2nc(-c3c[nH]c4ncccc34)cs2)c2cc(Cl)ccc21	27.3	> 100	3.74	14.6	4.27	> 100	3.94	> 100	7470	29.7	4.63	> 100	6.61	> 100	5.3	> 100	91.3	23.6	5.78	> 100
C=C1C(=O)OC2C1C(OC(=O)/C(C)=C/C)CC(O)(CCl)C1C(OC(C)=O)C=C(C)C21O (stereo not given)		22.8		24.3		21.1		61		23.4		25		> 58.9		14		42.6		27.3
COc1ccc(-n2c(-c3ccc(NC(=O)CCCl)cc3)nnc2-c2cc(OC)c(OC)c(OC)c2)cc1	3.14	13.8	2.02	4.75	3.4	10.6	4.55	> 14.3	2580	7.78	2.44	5.02	4.33	> 14.3	4.55	> 14.3	3010	14	4.97	11.9
O=C(CSc1nc2ccc([N+](=O)[O-])cc2[nH]1)Nc1cccc(C(F)(F)F)c1	2.63	11.6	1.71	3.47	2.71	19.5	2.29	8.75	1660	11	2	8.02	2.71	12.7	3.13	14.6	1140	11.8	3.14	10.9
O=C(Nc1cccc(NS(=O)(=O)c2ccc(F)cc2)c1)c1ccc(-c2ccccc2)cc1	2.99	8.27	3.23	11.4	3.05	14.5	2.75	11.3	2990	15.3	3.65	20.7	3.4	> 100	4.04	35.4	2280	7.88	3.77	36.5
O=C(O)CSCC(=O)c1ccccc1		> 100		> 100		> 100		> 100		> 100		> 100		> 100		> 100		> 100		> 100
CCN(Cc1ccc(F)cc1F)c1ccc(CO)c(Cl)c1	14.3	34.8	3.31	9.24	19.7	> 71.5	12.6	32	389	2.07	2.26	14.5	19.9	68.8	0.917	> 45.6	105	0.701	0.0434	0.245
O=c1oc2ccccc2cc1-c1ccc([N+](=O)[O-])cc1		> 100		> 100		> 100		> 100		> 100		> 100		> 75.6		> 100		> 100		> 100
O=C(O)C(Cc1ccccc1-c1ccccc1)C(=O)O		> 100		> 100		> 100		> 100		> 100		> 100		> 100		> 100		> 100		> 100
COC(=O)c1ccc(-c2nc3cc(F)c(F)cc3nc2C#N)cc1	8.24	16.6	13	33.2	3.27	12.3	4.21	10.4	1710	4.99	8.53	17.6	9.35	17	4.66	16.8	12800	32	17.4	42.2
